Measured values from publication PMC7452891, “Cytokinin fluoroprobe reveals multiple sites of cytokinin perception at plasma membrane and endoplasmic reticulum” (Nature Communications, 2020).

Key:
[1] = target: T1, AtCKX2 (CYTOKININ OXIDASE/DEHYDROGENASE) (Arabidopsis thaliana, UniProt Q9FUJ3); assay: in vitro enzymatic reaction with AtCKX2 (kcat, Vmax/Km); type: biochemical
T1 construct: gene CKX2
T1 sequence (Q9FUJ3 23-501): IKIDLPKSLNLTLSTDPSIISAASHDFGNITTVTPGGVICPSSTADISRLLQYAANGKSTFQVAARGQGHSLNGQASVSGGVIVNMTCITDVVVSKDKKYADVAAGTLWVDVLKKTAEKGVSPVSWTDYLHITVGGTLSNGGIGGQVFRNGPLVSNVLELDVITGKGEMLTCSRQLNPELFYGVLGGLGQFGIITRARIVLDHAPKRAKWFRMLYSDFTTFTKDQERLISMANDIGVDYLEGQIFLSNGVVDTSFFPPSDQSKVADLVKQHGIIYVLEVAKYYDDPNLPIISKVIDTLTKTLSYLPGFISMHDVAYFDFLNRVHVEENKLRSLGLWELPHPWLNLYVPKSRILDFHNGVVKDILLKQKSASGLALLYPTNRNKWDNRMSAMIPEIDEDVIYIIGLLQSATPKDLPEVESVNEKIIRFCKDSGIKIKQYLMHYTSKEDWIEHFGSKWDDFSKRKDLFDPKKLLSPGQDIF

[2] = target: T2, CRE1/AHK4 (ARABIDOPSIS HISTIDINE KINASE 4) (Arabidopsis thaliana, UniProt Q9C5U0); assay: competitive radioligand binding assay ([[…]-3H]tZ, [[…]-3H]iP) with E. coli cells expressing the receptor; type: cell-based
T2 construct: expressed in E. coli KMI001 (pIN-III-AHK4)
T2 sequence (Q9C5U0 whole entry): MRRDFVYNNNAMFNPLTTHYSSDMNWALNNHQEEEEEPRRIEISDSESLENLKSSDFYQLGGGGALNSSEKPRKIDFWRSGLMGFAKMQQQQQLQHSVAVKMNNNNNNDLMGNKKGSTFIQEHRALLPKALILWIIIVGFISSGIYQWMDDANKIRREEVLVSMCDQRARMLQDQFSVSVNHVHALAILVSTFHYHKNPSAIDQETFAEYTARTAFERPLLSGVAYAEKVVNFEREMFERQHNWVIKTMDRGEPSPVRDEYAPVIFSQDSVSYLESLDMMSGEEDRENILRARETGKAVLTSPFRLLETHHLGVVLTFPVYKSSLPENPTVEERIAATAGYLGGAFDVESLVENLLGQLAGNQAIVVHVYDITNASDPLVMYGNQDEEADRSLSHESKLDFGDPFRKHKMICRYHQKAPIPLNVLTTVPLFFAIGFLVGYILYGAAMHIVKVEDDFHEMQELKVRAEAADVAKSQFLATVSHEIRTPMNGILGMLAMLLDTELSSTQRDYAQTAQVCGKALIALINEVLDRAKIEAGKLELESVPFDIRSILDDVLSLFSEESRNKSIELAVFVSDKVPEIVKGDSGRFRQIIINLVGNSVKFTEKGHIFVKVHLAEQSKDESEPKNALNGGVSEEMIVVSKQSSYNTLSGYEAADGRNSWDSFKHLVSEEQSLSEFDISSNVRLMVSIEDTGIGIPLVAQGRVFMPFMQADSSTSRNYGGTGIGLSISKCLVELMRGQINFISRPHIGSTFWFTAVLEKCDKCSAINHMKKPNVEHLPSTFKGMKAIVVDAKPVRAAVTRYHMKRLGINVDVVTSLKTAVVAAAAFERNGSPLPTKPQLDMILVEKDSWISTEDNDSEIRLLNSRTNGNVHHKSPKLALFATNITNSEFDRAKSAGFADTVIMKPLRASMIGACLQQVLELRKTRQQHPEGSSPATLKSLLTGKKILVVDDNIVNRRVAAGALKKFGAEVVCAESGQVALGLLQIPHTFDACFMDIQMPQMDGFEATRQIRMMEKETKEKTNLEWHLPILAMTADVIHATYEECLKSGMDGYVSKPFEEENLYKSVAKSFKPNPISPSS

AHK3 [3] = target: T3, AHK3 (Arabidopsis thaliana, UniProt Q9C5U1); assay: as above; type: cell-based
T3 construct: expressed in E. coli KMI001 (pSTV28-AHK3)
T3 sequence (Q9C5U1 1-1036): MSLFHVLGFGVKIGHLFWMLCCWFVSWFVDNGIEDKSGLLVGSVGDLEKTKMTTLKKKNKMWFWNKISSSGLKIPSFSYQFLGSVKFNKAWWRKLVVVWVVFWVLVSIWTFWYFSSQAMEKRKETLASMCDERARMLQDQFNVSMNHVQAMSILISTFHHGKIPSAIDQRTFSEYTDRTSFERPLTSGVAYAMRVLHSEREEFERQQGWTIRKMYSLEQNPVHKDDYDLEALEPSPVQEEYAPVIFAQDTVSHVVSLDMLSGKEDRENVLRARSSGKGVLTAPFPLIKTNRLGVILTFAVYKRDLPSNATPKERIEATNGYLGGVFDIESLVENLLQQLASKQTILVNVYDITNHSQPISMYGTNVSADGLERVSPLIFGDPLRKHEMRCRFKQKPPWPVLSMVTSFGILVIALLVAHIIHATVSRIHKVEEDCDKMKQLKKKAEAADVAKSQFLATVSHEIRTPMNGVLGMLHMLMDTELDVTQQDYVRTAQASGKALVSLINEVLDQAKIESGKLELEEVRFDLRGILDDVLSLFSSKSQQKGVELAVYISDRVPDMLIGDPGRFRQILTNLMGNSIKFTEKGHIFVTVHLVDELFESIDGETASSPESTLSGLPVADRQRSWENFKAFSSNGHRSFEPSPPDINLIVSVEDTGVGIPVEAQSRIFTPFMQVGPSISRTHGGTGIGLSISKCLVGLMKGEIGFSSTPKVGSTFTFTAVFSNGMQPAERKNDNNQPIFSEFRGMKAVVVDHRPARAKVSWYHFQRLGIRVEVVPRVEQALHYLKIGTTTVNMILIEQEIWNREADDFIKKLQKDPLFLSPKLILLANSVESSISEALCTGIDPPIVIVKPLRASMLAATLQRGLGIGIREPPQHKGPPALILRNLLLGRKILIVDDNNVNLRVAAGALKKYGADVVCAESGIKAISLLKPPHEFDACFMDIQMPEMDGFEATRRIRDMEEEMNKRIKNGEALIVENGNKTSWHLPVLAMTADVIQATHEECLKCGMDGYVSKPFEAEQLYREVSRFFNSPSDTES

[4] = target: T2, CRE1/AHK4 (ARABIDOPSIS HISTIDINE KINASE 4); assay: radioligand ([[…]-3H]tZ, […]) in competitive binding assay with E. coli cells
AHK3 [5] = target: T3, AHK3; assay: as above

| Structure (SMILES) | in vitro enzymatic reaction with AtCKX2 (kcat, Vmax/Km) [1] | Ki [2] [µM] | Ki (AHK3 [3]) [µM] | radioligand ([2-3H]tZ, 3 nM) in competitive binding assay with E. coli cells [4] | radioligand ([2-3H]tZ, 3 nM) in competitive binding assay with E. coli cells (AHK3 [5]) |
| --- | --- | --- | --- | --- | --- |
| CC(C)=CCNc1ncnc2c1ncn2CCNc1ccc([N+](=O)[O-])c2nonc12 [iP-NBD] | AtCKX2 converted iP-NBD to the product with approx. six times lower turnover rate kcat compared to the parental iP | ~1.4 | ~37 | – | – |
| C/C(=C\CNc1ncnc2[nH]cnc12)CO [tZ] | – | – | – | iP-NBD competes for receptor binding with radiolabelled natural cytokinins iP and tZ | iP-NBD competes for receptor binding with radiolabelled natural cytokinins iP and tZ |
